Data published in ChEMBL document CHEMBL4177715, “Synthesis of radioiodinated probes targeted toward matrix metalloproteinase-12” (Bioorg Med Chem Lett, 2018).

Tests used:
Collagenase 3 = Collagenase 3 (Homo sapiens, UniProt P45452); assay: Inhibition of recombinant human MMP13 using Mca-Pro-Leu-Gly-Leu-Dpa(Dnp)-Ala-Arg-NH2 as substrate after 30 mins by fluorescence spectrometry
[1] = molecular target: Macrophage metalloelastase (Homo sapiens, UniProt P39900); assay: Inhibition of recombinant human MMP12 using Mca-Pro-Leu-Gly-Leu-Dpa(Dnp)-Ala-Arg-NH2 as substrate after 30 mins by fluorescence spectrometry
Sequence of Macrophage metalloelastase (P39900 whole entry): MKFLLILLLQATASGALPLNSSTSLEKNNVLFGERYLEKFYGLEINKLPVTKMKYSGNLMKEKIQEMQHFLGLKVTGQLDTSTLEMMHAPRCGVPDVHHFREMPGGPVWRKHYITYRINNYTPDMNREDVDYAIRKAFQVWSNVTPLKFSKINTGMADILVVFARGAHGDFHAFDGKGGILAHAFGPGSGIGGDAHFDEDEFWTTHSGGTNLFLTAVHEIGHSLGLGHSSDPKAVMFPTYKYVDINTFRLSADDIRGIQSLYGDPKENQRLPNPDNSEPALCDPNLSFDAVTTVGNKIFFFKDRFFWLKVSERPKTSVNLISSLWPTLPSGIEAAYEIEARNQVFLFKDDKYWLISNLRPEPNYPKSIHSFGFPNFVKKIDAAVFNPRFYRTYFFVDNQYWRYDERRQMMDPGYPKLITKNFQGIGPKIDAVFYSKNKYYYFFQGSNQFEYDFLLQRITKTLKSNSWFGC

| Compound | IC50 (Collagenase 3) [nM] | IC50 [1] [nM] |
| --- | --- | --- |
| CC(C)[C@H](NS(=O)(=O)c1ccc2c(c1)oc1ccc(NC(=O)Oc3ccc(Br)cc3)cc12)C(=O)O | 51 | 11 |
| CC(C)[C@H](NS(=O)(=O)c1ccc2c(c1)oc1ccc(NC(=O)c3ccc(I)cc3)cc12)C(=O)O | > 2000 | 502 |
| CC(C)[C@H](NS(=O)(=O)c1ccc2c(c1)oc1ccc(NC(=O)Oc3ccc(I)cc3)cc12)C(=O)O | 69 | 8.5 |
| CC(C)[C@H](NS(=O)(=O)c1ccc2c(c1)oc1ccc(NS(=O)(=O)c3ccc(I)cc3)cc12)C(=O)O | 403 | 297 |
| CC(C)[C@H](NS(=O)(=O)c1ccc2c(c1)oc1ccc(NC(=O)Oc3ccc(F)cc3)cc12)C(=O)O | 65 |  |
